Source: patent publication US10501413B2, “Inhibitors of the Notch transcriptional activation complex and methods for use of the same” (UNIVERSITY OF MIAMI, priority 2015, dated 2019)

Legend:
[1] = biological target: T1, NICD1 (Homo sapiens, UniProt P46531); experiment: Surface plasmon resonance binding to immobilized NICD; conditions: SPR, equilibrium response fitted to 1:1 binding model
T1 construct: the intracellular domain of Notch (“NICD”)
Method: The inhibitors described herein were subjected to surface plasmon resonance (“SPR”) to determine their binding constants to the NICD and CSL components of the NTC. In particular, the target protein (NICD1) was immobilized on the dextran surface of the SPR sensor chip. Through a microflow system, a solution with the inhibitor was injected over the immobilized protein layer. The inhibitor bound to the immobilized protein, which led to an increase in SPR signal, indicating association of the ligand to the target protein. After 45 seconds, buffer solution was injected on the microfluidics that dissociated the bound complex between the ligand and the inhibitor. As the inhibitor dissociated from the ligand, a decrease in SPR signal was observed. The equilibrium dissociation constant KD was determined by plotting the equilibrium response (Req) as a function of the concentration of the ligand, and fitting the data to a 1:1 binding model. The results are listed in […].

[2] = tested on: MAML1 and Notch1 occupancy on HES1 promoter in OE33 and 786-0 cells; experiment: Chromatin immunoprecipitation (ChIP) on the HES1 locus; assay type: cell-based, human; conditions: 24 hours
Method: The effect of inhibitor treatment on the assembly of the NTC in cells was investigated.
Cells (8×10^6 OE33 cells or 10×10^6 786-0 cells) were plated onto a 15 cm tissue culture dish a day prior to treatment. Cells were then treated for 24 hours with (N—[N-(3,5-difluorophenacetyl)-L-alanyl]-S-phenylglycine t-butyl ester (“DAPT”, 5 μM), Inhibitor No. 1-134-83 (25 μM), or DMSO vehicle. Following treatment, cells were cross-linked for 10 minutes with 1% formaldehyde. The reaction was then stopped by adding […] glycine. Cells were collected in SDS lysis buffer (1% SDS, 10 mM EDTA, 50 mM Tris-HCl pH 8.0) and sonicated to yield chromatin fragments of approximately 300 to 800 bp (8 minutes at high level for OE33 cells; 5 minutes at medium level for 786-0 cells in BIORUPTOR UCD-200 sonicator). Lysates were divided into equal parts and immunoprecipitated with either α-Notch1 (A301-894A, Bethyl Laboratories) or α-MAML1 (12166s, Cell Signaling Technology) antibody. Protein:DNA immunoprecipitates were then reverse cross-linked at 65° C. in 200 mM NaCl for 4 hours, followed by incubation with RNase A and proteinase K. DNA was then purified using a PCR purification kit (28104,
Qiagen). Immunoprecipitated DNA was then detected by SYBR green qPCR using HES1 specific oligonucleotide primers (forward: 5′CGTGTCTCCTCCTCCCATT3′; reverse: 5′GGGGGATTCCGCTGTTAT3′).

[3] = tested on: cancer cell lines (OE33, 786-0 and panel); experiment: Colony formation assay; assay type: cell-based, human; conditions: for colony formation: 7 days
Method: The effect of inhibitor treatment on Notch-target gene transcription also was investigated (FIGS. 2C and 2D). […] As proof of specificity, transcription of the housekeeping gene, HPRT, was unaltered in treated cells. To test the effects of Notch inhibition on proliferation, a colony formation assay was performed.
To extend the analysis of tumor cell growth inhibition, several commonly used cancer cell lines were selected to test for sensitivity to Inhibitor No. 1-134-83 (FIGS. 3A and 3B). […] In this analysis, sensitivity to DAPT is taken to indicate specific inhibition of Notch activity. […] Cells that are refractory to DAPT were equally resistant to Inhibitor No. 1-134-83.
Cells were plated into a 6 well plate at a density of 2000 cells/cm^2. Inhibitor treatment commenced 24 hours post seeding, and the media containing inhibitor was changed every 48 hours thereafter. After 168 hours, cells were fixed with ice cold methanol for 10 minutes, stained for 1 hour with crystal violet, de-stained with water, and allowed to dry.

[4] = tested on: Notch-dependent somite formation; experiment: Zebrafish somite formation; assay type: in vivo, D. rerio; conditions: embryos soaked in 40 μM from 8 hPF, scored at 13 hPF
From the text: The in vivo effects of the inhibitors of the disclosure also were investigated using D. rerio. Notch signaling plays a role in somite formation in developing vertebrate embryos. Changes in levels of Notch signaling (either increased or decreased) during development of the zebrafish embryo result in disruption of the symmetric, bilaterally formed somites, which can be readily observed. Thus, disruption of somitogenesis in zebrafish represents a convenient dose-sensitive readout for Notch pathway stimulation or inhibition. When 100 pg of mNotch1 was injected in mRNA, defects in somitogenesis in 90% of the embryos resulted (compared to 0% disrupted embryos in the control group) (FIG. 5). […] Disruption of somite formation was not observed, however, when embryos were soaked in vehicle control (DMSO). […] On three separate days, multiple clutches of embryos from two or more breeding pairs of the AB wild type line were combined and incubated at 28.5° C. for 8 hours in E3 medium with 0.1% (w/v) methylene blue. The embryos were then placed into fresh E3 medium with 0.1% (w/v) methylene blue containing 50 μM DMSO, 40 μM compound 1-134-83, or nothing. […] At 13 hours post fertilization, samples were collected and scored for the presence of discrete somite boarders on a Zeiss Stemi 2000-CS scope. Data was analyzed using Fisher's exact test in R3.1.0. […]

T1 sequence (P46531 1754-2555 limits assumed): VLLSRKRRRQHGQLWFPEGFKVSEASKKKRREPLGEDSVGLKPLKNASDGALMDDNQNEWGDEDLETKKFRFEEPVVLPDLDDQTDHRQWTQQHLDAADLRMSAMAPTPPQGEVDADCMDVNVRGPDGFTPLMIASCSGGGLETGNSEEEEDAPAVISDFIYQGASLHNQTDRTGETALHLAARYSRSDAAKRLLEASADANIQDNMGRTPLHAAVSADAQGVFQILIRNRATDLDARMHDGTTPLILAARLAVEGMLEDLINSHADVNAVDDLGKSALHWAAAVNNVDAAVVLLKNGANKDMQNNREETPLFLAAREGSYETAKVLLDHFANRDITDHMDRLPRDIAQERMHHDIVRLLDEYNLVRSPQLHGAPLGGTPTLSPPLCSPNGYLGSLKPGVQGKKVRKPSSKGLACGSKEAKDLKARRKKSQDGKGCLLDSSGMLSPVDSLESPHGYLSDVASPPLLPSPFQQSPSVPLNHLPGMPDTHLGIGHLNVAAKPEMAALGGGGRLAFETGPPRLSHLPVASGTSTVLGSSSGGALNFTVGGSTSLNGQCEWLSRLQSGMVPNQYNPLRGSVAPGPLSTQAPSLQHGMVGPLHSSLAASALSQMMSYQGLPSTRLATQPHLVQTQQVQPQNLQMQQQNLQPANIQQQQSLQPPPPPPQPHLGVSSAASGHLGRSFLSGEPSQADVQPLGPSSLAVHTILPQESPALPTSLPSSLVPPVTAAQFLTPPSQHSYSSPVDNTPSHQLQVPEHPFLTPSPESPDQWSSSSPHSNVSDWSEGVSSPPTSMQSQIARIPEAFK

In the case of CCOC(=O)COc1ccc(/C=C2\SC(=S)NC2=O)cc1OC [1-134-83], the Kd [1] is reported as 11 ± 3 µM, the “occupancy of MAML1 on the HES1 promoter” value [2] is reported as “decreased the occupancy” and the “occupancy of NOTCH1 on the HES1 promoter” value [2] is reported as “did not affect”. The colony formation ([3]; 786-0 and OE33 cells) was “dose-dependent reduction”, the effective concentration ([3]; cancer cell lines) was 5 µM and the cellular toxicity ([3]; cells refractory to DAPT, dose nearly 10× the effective concentration) was “did not induce any cellular toxicity”. The colony formation ([3]; insensitive cell lines, high doses) was “do not show changes in colony formation ability”, the colony formation ([3]; sensitive (Notch dependent) cell lines) was “dose-dependent decrease in colony formation” and the “somite formation in embryos” value [4] was “disrupted somites”.
